Patent US10017481B2, “Conformationally constrained, fully synthetic macrocyclic compounds” (POLYPHOR AG, priority 2012, dated 2018)

Columns and labels:
Type in all cases: in vitro ADME
[1] = Metabolic stability assay, CD-1 mouse microsomes; conditions: CD-1 mouse microsomes, 10 μM, 37° C.; for half-life at 10 μM: both sexes, 1 mg/ml protein, read-out: Metabolic Stability T ½ [min] mouse/(rat)
Protocol: (§1) 5. Plasma and Metabolic Stability Assays
(§2) Example compounds were dissolved in DMSO/H2O 90:10 to a final concentration of 10 mM for plasma stability determination and metabolic stability determination.
(§3) The assays were conducted according to literature precedents (F. P. Guengerich, Analysis and Characterization of Enzymes; in: Principles and Methods of Toxicology, A. W. Hayes (Ed.) Raven Press: New York, 1989, 777-813; R. Singh et al., In vitro metabolism of a potent HIV-protease inhibitor (141W94) using rat, monkey and human liver S9, Rapid Commun. Mass Spectrom. 1996, 10, 1019-1026).
(§4) Metabolic Stability Assay
(§5) Microsomes from a human 50 donor mixed gender pool and 1:1 mixtures of microsomes from CD-1 mouse single-gender pools are purchased from Celsis (Belgium). The enzymatic reaction is performed in a buffer containing an NADPH regeneration system and microsomes with the following end concentrations: 100 mM potassium phosphate buffer (all from Sigma), 1 mg/mL glucose-6-phosphate, 1 mg/mL β-nicotinamide adenine dinucleotide phosphate (NADP), 0.65 mg/mL magnesium chloride, 0.8 units/mL of glucose-6-phosphate dehydrogenase (prediluted with 5 mM citrate buffer), 10 μM compound and 1 mg/ml microsomal protein. Compounds are incubated at 37° C. in duplicates and samples are taken after 0, 5, 10, 20 and 60 minutes. After acetonitrile precipitation (3 volumes), shaking (2 minutes, 600 rpm) followed by centrifugation (10 minutes, 3200 g), the supernatant is dried reconstituted in the suitable solvent (cf. Table 33) and analyzed by HPLC/MS/MS. Metabolic turnover is expressed in % of the initial 0 minutes value and half life T½ (min) is calculated. Verapamil for human and propranolol for mouse are used as reference and are assayed with every experimental set.

[2] = Plasma stability assay, CD-1 mouse plasma; conditions: for Plasma Stability 240 min mouse/(rat) [% remain.]: CD-1 mouse plasma, 10 μM, 37° C.; for half-life at 10 μM: both sexes, CD-1, mouse, plasma
Protocol: (§6) 5. Plasma and Metabolic Stability Assays Example compounds were dissolved in DMSO/H2O 90:10 to a final concentration of 10 mM for plasma stability determination and metabolic stability determination. The assays were conducted according to literature precedents (F. P. Guengerich, Analysis and Characterization of Enzymes; in: Principles and Methods of Toxicology, A. W. Hayes (Ed.) Raven Press: New York, 1989, 777-813; R. Singh et al., In vitro metabolism of a potent HIV-protease inhibitor (141W94) using rat, monkey and human liver S9, Rapid Commun. Mass Spectrom. 1996, 10, 1019-1026). Plasma Stability Assay Human plasma (Blutspendedienst SRK, Basel) and CD-1 mouse plasma (mixed gender pool >50 animals, Innovative Research, Calif., USA) are both sodium citrate stabilized. The assay is performed in triplicates at 10 μM compound concentration and 37° C. Samples are taken at 0, 15, 30, 60, 120 and 240 minutes and stopped by precipitation with 3 volumes of acetonitrile/formic acid 98:2 and shaking (2 minutes, 600 rpm) followed by filtration (−20 mm Hg). The filtrate is collected. The filtrate (100 μL) is evaporated and reconstituted in the suitable solvent (cf. Table 33) to be analyzed by HPLC/MS/MS. The resulting peak area counts are expressed in percent of the 0 value and used to determine the endpoint stability in % and the half life T in minutes. In order to monitor assay integrity the degradation of propantheline is assayed with every experimental set.

[3] = Plasma stability assay, human plasma; conditions: for Plasma Stability 240 min hum [% remain.]: human plasma, 10 μM, 37° C.; for half-life at 10 μM: human, plasma
Protocol: as §6

[4] = Metabolic stability assay, human liver microsomes; conditions: human microsomes, 10 μM, 37° C.; for half-life at 10 μM: both sexes, liver microsomes, 1 mg/ml protein, read-out: Metabolic Stability T ½ [min] hum
Protocol: as §1, §2, §3, §4, §5

Row | Compound | Metabolic Stability 60 min mouse/(rat) [% remain.] [1] [% remain.] | half-life at 10 μM [1] [min] | Plasma Stability 240 min mouse/(rat) [% remain.] [2] [% remain.] | half-life at 10 μM [2] [min] | Plasma Stability 240 min hum [% remain.] [3] [% remain.] | half-life at 10 μM [3] [min] | half-life at 10 μM [4] [min] | Metabolic Stability 60 min hum [% remain.] [4] [% remain.]
1 | C[C@H]1COc2cccc(c2)-c2cccc(c2)C(=O)N(C)[C@H](C(=O)Nc2ccccc2)CCC(=O)N1 [Ex. 72, (9S,14S)-9,15-dimethyl-11,16-dioxo-N-phenyl-7-oxa-10,15-diazatricyclo[15.3.1.1^2,6] docosa-1(21),2(22),3,5,17,19-hexaene-14-carboxamide] | 30 | 35 | 65 | > 240 | 100 | > 240 | 22 | 14
2 | C[C@H]1COc2cccc(c2)-c2cccc(c2)C(=O)N(C)[C@H](C(=O)NCc2cccc3ccccc23)CCC(=O)N1 [Ex. 74, (9S,14S)-9,15-dimethyl-N-(1-naphthylmethyl)-11,16-dioxo-7-oxa-10,15-diazatricyclo[15.3.1.1^2,6]docosa-1(21),2(22),3,5,17,19-hexaene-14-carboxamide] | 0 | 3 | 67 | > 240 | 100 | > 240 | 7 | 1
3 | C[C@H]1COc2cccc(c2)-c2cccc(c2)C(=O)N(C)[C@H](C(=O)NCc2cccnc2)CCC(=O)N1 [Ex. 75, (9S,14S)-9,15-dimethyl-11,16-dioxo-N-(3-pyridinylmethyl)-7-oxa-10,15-diazatricyclo[15.3.1.1^2,6]docosa-1(21),2(22),3,5,17,19-hexaene-14-carboxamide] | 48 | 53 | 55 | > 240 | 93 | > 240 | 21 | 12
4 | COCCNC(=O)[C@@H]1CCC(=O)N[C@@H](C)COc2cccc(c2)-c2cccc(c2)C(=O)N1C [Ex. 77, (9S,14S)-N-(2-methoxyethyl)-9,15-dimethyl-11,16-dioxo-7-oxa-10,15-diazatricyclo[15.3.1.1^2,6]docosa-1(21),2(22),3,5,17,19-hexaene-14-carboxamide] | 75 | > 60 | 85 | > 240 | 96 | > 240 | 44 | 41
5 | C[C@H]1COc2cccc(c2)-c2cccc(c2)C(=O)N(C)[C@H](C(=O)NCC(F)(F)F)CCC(=O)N1 [Ex. 78, (9S,14S)-9,15-dimethyl-11,16-dioxo-N-(2,2,2-trifluoroethyl)-7-oxa-10,15-diazatricyclo[15.3.1.1^2,6]docosa-1(21),2(22),3,5,17,19-hexaene-14-carboxamide] | 92 | > 60 | 86 | > 240 | 100 | > 240 | > 60 | 99
